In US20190255080A1, “METHOD OF REDUCING THYROID-ASSOCIATED SIDE EFFECTS” (Viking Therapeutics, Inc., priority 2016, published 2019):
“Also recorded” adds a separate entry of the source.

How the values were obtained:
[1] = test system: patients with primary hypercholesterolemia and non-alcoholic fatty liver disease; experiment: Phase 1b study: LDL-C and triglycerides over 4-week treatment period; assay type: in vivo, humans; conditions: 5 mg daily and up to 40 mg once weekly
Description: A phase 1b, randomized, double-blind, placebo-controlled, study is carried out to assess the efficacy, safety, and tolerability of Compound 1, administered for 12 weeks followed by a 4-week off-drug phase, in patients with primary hypercholesterolemia and non-alcoholic fatty liver disease.
(§1) The maximum cumulative weekly dose will not exceed 40 mg in this current clinical study. […] The projected systemic exposure (AUC0-168 hr [i.e., exposure during one week]) of the active metabolite at the 40 mg once weekly dose is 5570 ng*hr/mL. […] Projected exposures in humans receiving 40 mg once weekly is therefore estimated to be about 3-fold lower than exposures at the previously determined 5 mg/kg/day no observable adverse effect level (NOAEL).
Approximately 32 subjects are enrolled and randomly assigned in a 6:2 ratio (Compound 1:placebo) to one of the following treatment groups: (1) 5 mg Compound 1 or Placebo once daily (2) 20 mg Compound 1 or Placebo once weekly (3) 40 mg Compound 1 or Placebo once weekly (4) 10 mg Compound 1 or Placebo every other day The primary endpoint is the percent change in LDL-C from the baseline visit to Day 29. Either a 20% decrease in LDL-C or a lowering of LDL-C to within the normal range is considered clinically meaningful. Subjects are also monitored for adverse effects and/or clinically relevant changes in health status or results from laboratory analyses. […]

[2] = Previously determined no observable adverse effect level (NOAEL) and exposure at it; conditions: in vivo
Description: as §1

beagle dogs [3] = experiment: Alternative dosing study in dogs: total plasma cholesterol levels; assay type: in vivo
Description: (§2) The objective of the study was to determine the effects of oral administration of Compound 2 once-daily for 14 days followed by alternate day dosing for 14 days on plasma cholesterol levels and indicators of thyroid function in beagle dogs. Compound 2 was formulated with Lutrol F68 NF (Poloxomer 188) and carboxymethylcellulose (CMC; sodium salt/high viscosity) and was administered as a suspension in 0.5% CMC/1% Lutrol in deionized water. Twelve beagle dogs (9-15 kg) were randomized into 6 dosing groups (1 male and 1 female/group) and gavaged once-daily with a 0.5% CMC/1% Lutrol F68 suspension of Compound 2 at doses of […] or with vehicle for 14 days. At the end of the treatment cycle (Cycle 1), the dogs were washed out for 4 weeks and then entered into a second 14-day treatment cycle. Cycle 2 employed the same dosing paradigm as Cycle 1, but animals were randomized to Cycle 2 in such a way that the combined dosing groups from the two cycles consisted of 4 different animals (2 males, 2 females) each. At the conclusion of Cycle 2, dosing was continued on alternate days for an additional 14-day period (Cycle 2 Extension). Blood samples were collected at baseline and appropriate time intervals thereafter and analyzed for total plasma cholesterol levels, serum levels of total T4 (tT4), free T4 (fT4), total T3 (tT3), free T3 (fT3), and thyroid stimulating hormone (TSH).

beagle dogs [4] = experiment: Alternative dosing study in dogs: indicators of thyroid function (serum tT4, fT4, tT3, fT3, TSH); assay type: in vivo
Description: as §2

[5] = 0.3 mg/kg/day, once-daily oral, 14 days
[6] = 10 mg/kg/day (highest dose), once-daily oral, 14 days
[7] = alternate day dosing after once-daily treatment

recovery of TSH levels during Cycle 2 Extension (beagle dogs [4]; [7]) | recovery of fT3 levels during Cycle 2 Extension (beagle dogs [4]; [7]) | TSH levels reduced from baseline on Day 15 (beagle dogs [4]; once-daily treatment, Day 15, non-dose-dependent) | reductions of serum tT4 from baseline levels (beagle dogs [4]; once-daily treatment, dose-dependent, across dose groups) | reductions of fT4 from baseline levels (beagle dogs [4]; once-daily treatment, dose-related, across dose groups) | reductions of fT3 from baseline levels (beagle dogs [4]; once-daily treatment, non-dose-dependent, across dose groups) | SMILES | LDL-C [1] | triglycerides [1] | NOAEL [2] | effects on total plasma cholesterol levels (beagle dogs [3]; 0.1 mg/kg/day (lowest dose), once-daily oral) | average reduction of total plasma cholesterol levels on Day 15 (beagle dogs [3]; [5]) | average reduction of total plasma cholesterol levels on Day 15 from baseline (beagle dogs [3]; [5]) | average reduction of total plasma cholesterol levels on Day 15 (beagle dogs [3]; [6]) | average reduction of total plasma cholesterol levels on Day 15 from baseline (beagle dogs [3]; [6]) | total plasma cholesterol levels during alternate day dosing (beagle dogs [3]; Cycle 2 Extension, alternate day dosing for 14 days after 14 days once-daily) | reductions of average total plasma cholesterol levels from baseline (beagle dogs [3]; once-daily oral, 14 days, 0.1-10 mg/kg) | levels of fT4 during Cycle 2 Extension (beagle dogs [4]; [7]) | levels of tT4 during Cycle 2 Extension (beagle dogs [4]; [7]) | effects on serum TSH levels on Day 8 (beagle dogs [4]; once-daily treatment, Day 8) | changes in tT3 levels relative to baseline levels (beagle dogs [4]; once-daily treatment, compared with vehicle-treated group)
– | – | – | – | – | – | Cc1cc(OCP(=O)(OCOC(=O)C(C)(C)C)OCOC(=O)C(C)(C)C)cc(C)c1Cc1ccc(O)c(Cc2ccccc2)c1 [Compound 1] | dose and/or schedule dependent decreases | dose and/or schedule dependent decreases | 5 mg/kg/day | – | – | – | – | – | – | – | – | – | – | –
more variable recovery | more variable recovery | 6-27% | 20-54% | 8-39% | 15-32% | Cc1cc(OC[P@]2(=O)OC[C@@H](c3cccc(Cl)c3)CO2)cc(C)c1Cc1ccc(O)c(C(C)C)c1 [Compound 2] | – | – | – | minimal effects | -28 mg/dL | ~22% | -71 mg/dL | ~47% | remained reduced relative to vehicle-treated animals to a similar or greater extent than observed after once-daily dosing; also recorded: did not compromise cholesterol lowering efficacy | up to 47% | gradually recovered to levels that approached those of vehicle-treated animals | gradually recovered to levels that approached those of vehicle-treated animals | variable, with full suppression in some animals and up to 4-fold elevations in others | no meaningful changes; also recorded: unaffected
